From US8871264B2, “Immediate release tablet formulations” (AstraZeneca AB, priority 2009, dated 2014)
Read-outs that look alike come from different tables or passages of the source.

How the values were obtained:
[1] = phosphate buffer pH 6.8, 37° C., 75 rpm, n=6; for Dissoln. % 10 min: tablets of Example 12, 10 min; for Dissoln. % 20 min: tablets of Example 12, 20 min; for Dissoln. % 30 min: tablets of Example 12, 30 min; for Dissoln. % 45 min: tablets of Example 12, 45 min; for Dissoln. % 75 min: tablets of Example 12, 75 min; for Dissolution % 10 min: tablets of Example 13, 10 min; for Dissolution % 20 min: tablets of Example 13, 20 min; for Dissolution % 30 min: tablets of Example 13, 30 min; for Dissolution % 45 min: tablets of Example 13, 45 min; for Dissoln % 75 min: tablets of Example 13, 75 min
[2] = test system: type II diabetic patients; settings: for adjusted mean change in HbA1c from baseline: after 24 weeks; for adjusted mean change in HbA1c from baseline / adjusted mean change in FPG from baseline at Week 24: type 2 diabetes patients; for change in total body weight: at 24 weeks
Protocol: The data represent findings from a randomized, double-blind, placebo-controlled study of 546 individuals with type 2 diabetes whose HbA1c was greater than or equal to 7.0 percent and less than or equal to 10 percent at baseline. […] Patients in all arms also received metformin (greater than or equal to 1500 mg/d). […] Exploratory endpoints included body weight decrease of greater than or equal to 5 percent or greater than or equal to 10 percent as well as body weight percent change from baseline.

[3] = combination of metformin and dapagliflozin, 24 weeks, compared to placebo plus metformin
[4] = dapagliflozin 2.5 mg plus metformin
[5] = dapagliflozin 5 mg plus metformin
[6] = dapagliflozin 10 mg plus metformin

Compound	Dissoln. % 10 min [1]	Dissoln. % 20 min [1]	Dissoln. % 30 min [1]	Dissoln. % 45 min [1]	Dissoln. % 75 min [1]	Dissolution % 10 min [1]	Dissolution % 20 min [1]	Dissolution % 30 min [1]	Dissolution % 45 min [1]	Dissoln % 75 min [1]	other results
CCOc1ccc(Cc2cc([C@@H]3O[C@H](CO)[C@@H](O)[C@H](O)[C@H]3O)ccc2Cl)cc1 [Dapagliflozin, (2S,3R,4R,5S,6R)-2-(4-chloro-3-(4-ethoxybenzyl)phenyl)-6-(hydroxymethyl)tetrahydro-2H-pyran-3,4,5-triol]	38%	78%	96%	99%	99%	37%	77%	95%	97%	97%	fasting plasma glucose (FPG) levels [2, 3]: reduced; glycosylated hemoglobin levels (HbA1c) [2, 3]: reduced; mean reductions in body weight ([2]; compared to individuals taking placebo, 24 weeks): statistically greater mean reductions; patients achieving weight losses greater than or equal to 5 percent ([2]; compared to placebo, exploratory endpoint, 24 weeks): more patients; adjusted mean change in HbA1c from baseline [2, 4]: −0.67%; change in total body weight [2, 4]: -2.21 kg; adjusted mean change in FPG from baseline at Week 24 [2, 4]: -17.8 mg/dL; adjusted mean change in HbA1c from baseline [2, 5]: −0.70%; change in total body weight [2, 5]: -3.04 kg; adjusted mean change in HbA1c from baseline [2, 6]: −0.84%; change in total body weight [2, 6]: -2.86 kg; adjusted mean change in FPG from baseline at Week 24 [2, 6]: −23.5 mg/dL/dl
CN(C)C(=N)N=C(N)N [Metformin]	41%	80%	97%	100%	100%	41%	81%	98%	100%	100%	
